PubChem BioAssay (NCI)
“And” between values parts separate entries of the source, which are not always exact repeats. Equal values may be shown once.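 1) Cells in 96-well plates. 2) Compound, 48 h, 5 concentrations. 3) Linear interpolation between surrounding doses. 4) Unreached endpoint = highest concentration. At the GI50, growth is halved. TGI marks complete inhibition of growth.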

Assays:
Test in all cases: DTP human tumour cell line panel, 48 h
MDA-MB-231 breast = test system: MDA-MB-231 breast
EKVX NSCLC = test system: EKVX NSCLC
SN12C renal = test system: SN12C renal
NCI/ADR-RES ovarian = test system: NCI/ADR-RES ovarian
HCC-2998 colon = test system: HCC-2998 colon
BT-549 breast = test system: BT-549 breast
SR leukemia = test system: SR leukemia
HS 578T breast = test system: HS 578T breast
CCRF-CEM leukemia = test system: CCRF-CEM leukemia
HCT-116 colon = test system: HCT-116 colon

| SMILES | GI50 (MDA-MB-231 breast) | TGI (MDA-MB-231 breast) | GI50 (EKVX NSCLC) | TGI (EKVX NSCLC) | GI50 (SN12C renal) | TGI (SN12C renal) | GI50 (NCI/ADR-RES ovarian) | TGI (NCI/ADR-RES ovarian) | GI50 (HCC-2998 colon) | TGI (HCC-2998 colon) | GI50 (BT-549 breast) | TGI (BT-549 breast) | GI50 (SR leukemia) | TGI (SR leukemia) | GI50 (HS 578T breast) | TGI (HS 578T breast) | GI50 (CCRF-CEM leukemia) | TGI (CCRF-CEM leukemia) | GI50 (HCT-116 colon) | TGI (HCT-116 colon) |
| --- | --- | --- | --- | --- | --- | --- | --- | --- | --- | --- | --- | --- | --- | --- | --- | --- | --- | --- | --- | --- |
| Cc1ccc(C(=O)NCCCOc2ccc(N3C(N)=NC(N)=NC3(C)C)cc2Cl)cc1S(=O)(=O)F | > 100 µM | > 100 µM | > 100 µM | > 100 µM | 6.54 µM | > 100 µM | > 100 µM | > 100 µM | 24 µM | > 100 µM | 43.1 µM | > 100 µM | > 100 µM | > 100 µM | > 100 µM | > 100 µM | 5.33 µM | > 100 µM | 15 µM | > 100 µM |
| CCCCCCCCCC[C@@H](O)[C@@H]1CC[C@@H]([C@@H]2CC[C@@H]([C@@H](O)CCCCCCCCCC[C@H](O)CC3=CC(C)OC3=O)O2)O1 (stereo partly drawn) | 8.01 µM | 24.6 µM | 1.98 µM | 8.5 µM and > 80 µM | 16 µM | > 100 µM | – | 5.34 µM and 35.8 µM | – | 9.13 µM | – | 51.6 µM | – | 6.32 µM | 14 µM | – | 2.78 µM | – | – | 28.1 µM |
| CNCC/C=C1\c2cc3c(cc2-c2c1c1cc(OC)c(OC)cc1c(=O)n2C)OCO3 | 1.78 µM | 13.6 µM | 2.36 µM | 18.3 µM | 0.207 µM | 6.06 µM | 3.74 µM | > 45.2 µM | 3.41 µM | 33.6 µM | 3.66 µM | 22.5 µM | < 0.01 µM | – | 8.88 µM | 38.9 µM | < 0.01 µM | – | 0.0679 µM | – |
| CCOC(=O)C(Cc1c[nH]c2cc(N(CCO)CCO)ccc12)(NC(C)=O)C(=O)OCC | 960 µM | > 1000 µM | > 1000 µM | > 1000 µM | 379 µM | > 1000 µM | > 1000 µM | > 1000 µM | > 1000 µM | > 1000 µM | 69.3 µM and 459 µM | > 1000 µM | 16.8 µM and 34.6 µM | – | 246 µM | 808 µM | – | 57.2 µM and 448 µM | 325 µM | > 1000 µM |
| CN1CCN(c2ccc(OC(F)(F)F)c(Nc3ncc4c(n3)-c3c(c(C(N)=O)nn3CCO)CC4)c2)CC1 | 0.0755 µM and 0.059 µM | 8.61 µM and 3.23 µM | 0.0907 µM and 0.169 µM | > 88.2 µM | 1.13 µM and 0.721 µM | 20.7 µM and > 10 µM | 1.19 µM and 1.04 µM | > 62.6 µM | 0.0487 µM and 0.174 µM | 18.7 µM and > 4.38 µM | 0.0875 µM and 0.176 µM | 18 µM and > 10 µM | 0.0231 µM and 0.03 µM | 18.6 µM and > 3.19 µM | 0.164 µM and 0.184 µM | 18.5 µM and > 5 µM | 0.0197 µM and 0.0283 µM | 28.5 µM | 0.0353 µM and 0.0452 µM | 18.7 µM and > 10 µM |
| Cc1cc(C(=O)/C=C/c2ccc[nH]2)ccc1-n1ccc(C(F)(F)F)n1 | 27.6 µM | > 100 µM | 6.15 µM | > 100 µM | 6.44 µM | > 100 µM | 17.1 µM | > 100 µM | 20.1 µM | > 100 µM | 1.36 µM | 3.12 µM | 3.72 µM | 80.1 µM | 11.1 µM | > 100 µM | 2.55 µM | > 100 µM | 8.63 µM | > 100 µM |
| CN(C)C(=O)OCc1nc2c(N3CCOCC3)nc(-c3ccccc3)nc2n1C | 1.25 µM | 2.62 µM | 1.44 µM | 2.95 µM | 0.912 µM | 2.31 µM | 1.59 µM | 6.53 µM | 1.56 µM | 3.1 µM | 1.04 µM | 2.32 µM | 0.252 µM | 2.98 µM | 1.42 µM | 4.33 µM | 0.273 µM | 1.55 µM | 0.204 µM | 0.616 µM |
